The values below come from article PMC8388802, “Study on the Structure-Activity Relationship of an Antimicrobial Peptide, Brevinin-2GUb, from the Skin Secretion of Hylarana guentheri” (Antibiotics, 2021).

The test system of one assay is E. faecalis (NCTC 12493). It counts as cell-based, Enterococcus faecalis. Here is the method: (§1) The method of antimicrobial assay is based on the Methods for Dilution Antimicrobial Susceptibility Tests for Bacteria that Grow Aerobically from the Clinical and Laboratory Standards Institute (CLSI).The antimicrobial activities of peptides were evaluated against Gram-positive bacteria S. aureus (ATCC 6538), MRSA (NCTC 12493), E. faecalis (NCTC 12493), Gram-negative bacteria E. coli (ATCC CRM 8739), K. pneumoniae (ATCC 43816), P. aeruginosa (ATCC CRM 9027), yeast C. albicans (ATCC CRM 10231) and clinical isolates MRSA (B042 V2E1 A), E. coli (ATCC BAA-2340), K. pneumoniae (ATCC BAA-1705), P. aeruginosa (B004 V2S2 B).
(§2) At the first stage of the assay, 20 μL bacteria were cultured in 100 mL Mueller Hinton Broth (MHB) or Yeast Extract–Peptone–Dextrose broth (YPD-B), respectively, and was incubated overnight. Then, microorganisms were subcultured in 20 mL fresh MHB or YPD-B to achieve cultures in the logarithmic phase (1 × 10^8 CFU/mL), which can be verified by optical density (OD) (The OD of Gram-positive bacteria is 0.23, OD of Gram-negative bacteria is 0.4, and OD of yeast is 0.15), and viable cell counts. Then, the medium was used to dilute the cultures to specific cell densities (Gram-negative and Gram-positive bacteria: 5 × 10^5 CFU/mL; yeast: 1 × 10^6 CFU/mL), which were the final concentrations of bacterial suspensions used in the assay. The peptides were dissolved in DMSO to reach a final concentration of 512 µM. A series of two-fold dilutions ranging from 512 µM to 1 µM were dosed in the 96-well plates.
(§3) Antimicrobial assays were conducted in 96-well plates, which were divided into five groups, including a negative control group (PBS), a positive control group (20 μg/mL norfloxacin for bacteria and 10 μg/mL amphotericin B for yeast), vehicle control (1% DMSO), blank control (MHB or YPD-B), and a peptide group. Each microorganism had five repetitions, and each well contained 1 µL corresponding solution and 99 µL culture. After incubation at 37 °C overnight, the absorbance of each well was tested by a microplate reader (EL808, Biolise BioTek Winooski, Minneapolis, USA) under a 550 nm wavelength. The MIC is the lowest concentration at which no bacterial growth can be observed.
(§4) The next day, 10 µL of every clear well was taken out to be cultured on a Mueller Hinton Agar (MHA) plate and incubated at 37 °C for 16–20 h. The MBC is the lowest concentration without any bacterial colonies, which means at this concentration, the peptide reduces the viability of the pathogen by more than 99.9%.

The test system of assay [1] is P. aeruginosa (ATCC CRM 9027) biofilm. It counts as cell-based, Pseudomonas aeruginosa. The note with it: ATCC CRM 9027, 24 h. Here is the method: (§5) The anti-biofilm activities of the peptides against S. aureus (ATCC 6538), MRSA (NCTC 12493), E. faecalis (NCTC 12493), E. coli (ATCC CRM 8739), K. pneumoniae (ATCC 43816), and P. aeruginosa (ATCC CRM 9027) were evaluated.
(§6) The bacteria were inoculated in a different medium (Gram-positive bacteria were in TSB and Gram-negative bacteria were in LB) overnight, and the subculture was conducted in the same medium. When the bacteria reached a specific density, 100 µL of the dilution was added to each well of the 96-well microplate. Then 1 µL of peptide at a series of concentrations, the same concentration in the antimicrobial assay, were added into the well together with the bacteria. The plates were put into a moist shaking incubator with a speed of 200 rpm, and the temperature was set at 37 ℃. After a 24-h incubation, the liquid in the wells was aspirated, and each was washed twice by 100 µL PBS. One hundred µL of methanol were added into each well to stabilise the biofilm. After air-drying, 100 µL crystal violet was used to dye the biofilm, and they were dissolved in the 100 µL glacial acidic acid after drying. The solutions were transferred to a new microplate, and the absorbance of each well was tested by a microplate reader (EL808, Biolise BioTek Winooski, Minneapolis, MN, USA) at 595 nm wavelength. MBIC was the minimum concentration of the peptide showing no biofilm formation.
(§7) The bacteria were inoculated in a different medium (Gram-positive bacteria were in TSB and Gram-negative bacteria were in LB) overnight, and the subculture was conducted in the same medium. When the bacteria reached a specific density, 100 µL of the dilution was added to each well of the 96-well microplates. The plates were put into a moist shaking incubator with a speed of 200 rpm and the temperature was 37 ℃. After a 24 h incubation, the liquid in the wells was aspirated and they were washed twice by 100 µL PBS of each well. The peptides with the same concentrations were diluted in the corresponding medium and 100 µL were added into each well. After a 24-h incubation, the liquid in the wells was aspirated and they were washed twice by 100 µL PBS. One hundred µL of methanol were added into the wells to stabilise the biofilms. After being air-dried, 100 µL crystal violet was used to dye the biofilm, and they were dissolved in the 100 µL glacial acidic acid after drying. The solutions were transferred to a new microplate, and the absorbance of each well was tested by a microplate reader (EL808, Biolise BioTek Winooski, Minneapolis, USA) at 595 nm wavelength.

In assay [2] the test system is S. aureus (ATCC 6538) biofilm. It counts as cell-based, Staphylococcus aureus. The conditions noted are these: ATCC 6538, 24 h. Here is the method: as §5, §6, §7
Assay [3] deals with C. albicans (ATCC CRM 10231). It counts as cell-based, Candida albicans. Here is the method:
as §1, §2, §3, §4

The test system of another assay is S. aureus (ATCC 6538). It counts as cell-based, Staphylococcus aureus. Here is the method: as §1, §2, §3, §4
In assay [4] the test system is P. aeruginosa (B004 V2S2 B). It counts as cell-based, Pseudomonas aeruginosa. Here is the method: as §1, §2, §3, §4
The test system of assay [5] is P. aeruginosa (ATCC CRM 9027). It counts as cell-based, Pseudomonas aeruginosa. The procedure: as §1, §2, §3, §4
Assay [6] relates to E. faecalis (NCTC 12493) biofilm. It counts as cell-based, Enterococcus faecalis. The note with it: NCTC 12493, 24 h. Here is the method: as §5, §6, §7
The test system of assay [7] is K. pneumoniae (ATCC 43816) biofilm. It counts as cell-based, Klebsiella pneumoniae. The conditions noted are these: ATCC 43816, 24 h. Here is the method:
as §5, §6, §7

A word on the MIC: it is the least concentration at which growth counts as inhibited.

In brackets after ≈: the same amount, converted by molar mass. Where a SMILES comes first, the peptide text is derived from it.

On to `CC[C@H](C)[C@H](NC(=O)[C@@H](NC(=O)CN)C(C)C)C(=O)N[C@H](C(=O)N[C@@H](CCCCN)C(=O)N[C@H](C(=O)N[C@@H](CC(C)C)C(=O)N[C@@H](CCCCN)C(=O)NCC(=O)N[C@@H](C)C(=O)N[C@@H](C)C(=O)N[C@@H](CCCCN)C(=O)N[C@H](C(=O)N[C@H](C(=O)N[C@@H](C)C(=O)N[C@@H](C)C(=O)N[C@@H](CCCCN)C(=O)N[C@@H](CC(C)C)C(=O)N[C@@H](CC(C)C)C(N)=O)C(C)C)[C@@H](C)O)[C@@H](C)O)[C@@H](C)CC` [tB2U-K] (H-GVIIKTLKGAAKTVAAKLL-NH2), for which the MBC against E. faecalis (NCTC 12493) was 32 µM (≈ 60.6 µg/mL); in assay [3], 64 µM (≈ 121 µg/mL); against S. aureus (ATCC 6538), 32 µM (≈ 60.6 µg/mL); in [4] it was greater than 512 µM; in assay [5] it was 32 µM (≈ 60.6 µg/mL). Also, the MIC in the assay on E. faecalis (NCTC 12493) is 32 µM (≈ 60.6 µg/mL); in assay [3], 64 µM (≈ 121 µg/mL); against S. aureus (ATCC 6538), 32 µM (≈ 60.6 µg/mL); in assay [4] it was greater than 512 µM; in [5], 32 µM (≈ 60.6 µg/mL). In addition, the MBEC in assay [1], in assay [2], in [6] and in assay [7] was greater than 512 µM in each case. Further, the MBIC in assay [1] amounted to 128 µM; in assay [2] it was 16 µM; in assay [6] it was 32 µM; in assay [7] it was 128 µM.
With `CC[C@H](C)[C@H](NC(=O)[C@@H](NC(=O)CN)C(C)C)C(=O)N[C@H](C(=O)N[C@@H](CC(=O)O)C(=O)N[C@H](C(=O)N[C@@H](CC(C)C)C(=O)N[C@@H](CCCCN)C(=O)NCC(=O)N[C@@H](C)C(=O)N[C@@H](C)C(=O)N[C@@H](CCCCN)C(=O)N[C@H](C(=O)N[C@H](C(=O)N[C@@H](C)C(=O)N[C@@H](C)C(=O)N[C@@H](CCC(=O)O)C(=O)N[C@@H](CC(C)C)C(=O)N[C@@H](CC(C)C)C(N)=O)C(C)C)[C@@H](C)O)[C@@H](C)O)[C@@H](C)CC` [tB2U-α] (H-GVIIDTLKGAAKTVAAELL-NH2), the MBC (in the assay with E. faecalis (NCTC 12493); in assay [3]; with S. aureus (ATCC 6538); in assay [4]; in assay [5]) was greater than 512 µM each time. Further, the MIC (in the assay with E. faecalis (NCTC 12493); in assay [3]; in the assay on S. aureus (ATCC 6538); in assay [4]; in assay [5]) was greater than 512 µM throughout. The MBEC in assay [1], in assay [2], in assay [6] and in [7] was greater than 512 µM throughout. The MBIC in assay [1], in [2], in assay [6] and in [7] was greater than 512 µM in each case.
In the case of `CC[C@H](C)[C@H](NC(=O)[C@@H](NC(=O)CN)C(C)C)C(=O)N[C@H](C(=O)N[C@@H](CC(=O)O)C(=O)N[C@H](C(=O)N[C@@H](CC(C)C)C(=O)N[C@@H](CCCCN)C(=O)NCC(=O)N[C@@H](C)C(=O)N[C@@H](C)C(=O)N[C@@H](CCCCN)C(=O)N[C@H](C(=O)N[C@H](C(=O)N[C@@H](C)C(=O)N[C@@H](C)C(=O)N[C@@H](CCC(=O)O)C(=O)N[C@@H](CC(C)C)C(=O)N[C@@H](CC(C)C)C(=O)N[C@@H](CCCNC(=N)N)C(=O)N[C@@H](CCCCN)C(=O)N[C@@H](C)C(=O)N[C@@H](Cc1c[nH]cn1)C(N)=O)C(C)C)[C@@H](C)O)[C@@H](C)O)[C@@H](C)CC` [tB2U] (H-GVIIDTLKGAAKTVAAELLRKAH-NH2), the MBC (in the assay with E. faecalis (NCTC 12493); in assay [3]; against S. aureus (ATCC 6538); in assay [4]; in assay [5]) was greater than 512 µM throughout. In addition, the MIC against E. faecalis (NCTC 12493) is greater than 512 µM; in assay [3], greater than 512 µM; in the assay with S. aureus (ATCC 6538), 256 µM (≈ 608 µg/mL); in [4], greater than 512 µM; in [5] it was greater than 512 µM. Besides, the MBEC in assay [1], in [2], in assay [6] and in [7] was greater than 512 µM throughout. Besides, the MBIC in assay [1] was greater than 512 µM; in assay [2], greater than 512 µM; in assay [6], 256 µM; in assay [7], greater than 512 µM.
